This note sets out measurements from patent publication EP2924039A1, “2-Amino-1-phenyl-pyrrolo[3,2-b]quinoxaline-3-carboxamide derivates” (Universität Zürich, priority 2014, dated 2015).

The test system of assay [1] is MDA-MB-231 (breast cancer) cells. In words: Cell culture and GI50 determination (resazurin), MDA-MB-231. The format is cell-based. Particulars: Homo sapiens, MDA-MB-231, 72 h. As to the method:
(§1) Krek (Institute of Cell Biology, ETH Zurich) were cultured in Dulbelcco's modified Eagle's medium (DMEM) supplemented with 10% (v/v) fetal bovine serum. K562 leukemia cells obtained from Dr. Silvio Hemmi (Institute of Molecular Life Sciences, UZH) were cultured using RPMI medium supplemented with 5% (v/v) fetal bovine serum. All the media was additionally supplemented with 100 units/mL of penicillin, 100µg/mL of streptomycin, 4.5 g/L glucose, 0.11g/L sodium pyrubate and 2mM glutamine and the cells were grown at 37°C in 5% CO2 atmosphere with 80% relative humidity.
(§2) The old media was removed, the cells were washed with PBS (phosphate-buffered saline) and fresh media was added. […] Control cells were treated with the same DMSO concentrations. […] After 3 hours, the fluorescence was quantified using a fluorescence microplate reader (Biotek, FLx800™) at the respective excitation and emission wavelength of 560 and 590 nm. Resazurin becomes fluorescent under mitochondrial reduction and its emission directly correlates with the metabolic stability of the cells. […] All measurements were performed at least in triplicate (see table 1).
Background: Resazurin is reduced to fluorescent resorufin, in cell work by metabolically active cells.

A further assay has as its system K-562 leukemia cells. In words: Cell culture and GI50 determination (resazurin), K-562. The format is cell-based. Particulars: Homo sapiens, K562, K-562, 48 hour incubation. As to the method:
as §1
After 24 hours, 12.5 µL of a 10 fold concentrated drug or DMSO solution in RMPI media was added in every well. After 48 hour incubation, cell viability was studied by measuring the ability of the cells to process resazurin.

Assay [2] relates to A498 (kidney cancer) cells. In words: Cell culture and GI50 determination (resazurin), A-498. The note with it: Homo sapiens, A-498, 48h incubation. The class given is cell-based. As to the method: as §1, §2
The subject of the next assay is HT-29. Nature of the assay: Cell culture and GI50 determination (resazurin), HT-29. Particulars: Homo sapiens; HT-29, resazurin. The format is cell-based. As to the method: as §2
Assay [3] relates to KM12 (colon cancer) cells. Nature of the assay: Cell culture and GI50 determination (resazurin), KM12. The note with it: Homo sapiens. The format is cell-based. As to the method:
as §1, §2

For assay [4], the system named is HOP-92 (lung cancer) cells. Nature of the assay: Cell culture and GI50 determination (resazurin), HOP-92. The note with it: Homo sapiens; HOP-92, resazurin. The class given is cell-based. The protocol:
as §1, §2

The target in the next assay is T1, EphA3 (Homo sapiens, UniProt P29320).
T1 construct: A clone of EphA3 kinase domain (residues: 606-947); made in house; host or cells: Escherichia coli BL21 (DE3)
T1 sequence (P29320 606-947): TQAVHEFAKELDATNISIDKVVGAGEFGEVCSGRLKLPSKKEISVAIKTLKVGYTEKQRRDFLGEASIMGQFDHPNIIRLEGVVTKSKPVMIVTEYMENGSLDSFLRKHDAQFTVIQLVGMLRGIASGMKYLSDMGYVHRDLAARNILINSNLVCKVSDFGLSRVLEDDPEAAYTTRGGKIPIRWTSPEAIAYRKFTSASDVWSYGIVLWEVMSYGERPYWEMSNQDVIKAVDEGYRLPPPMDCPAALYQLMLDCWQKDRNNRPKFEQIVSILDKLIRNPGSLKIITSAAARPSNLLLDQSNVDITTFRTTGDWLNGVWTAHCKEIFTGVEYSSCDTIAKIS
In words: Differential Scanning Fluorimetry. The note with it: 2 µM EphA3, compound 20µM; read-out: Delta Tm. The class given is binding. The protocol:
Cell pellets were resuspended in buffer A (50mM Tris, pH 8.0 and 100mM NaCl, supplemented with protease inhibitors) and lysed by sonication. After centrifugation at 15,000 rpm for 1 h, the soluble fraction of EphA3 was purified using […] (GE healthcare), followed by gel filtration chromatography (Superdex75; GE healthcare). The appropriate fractions were combined and concentrated to ~10 mg/mL using Amicon filter devices (10kDa as cutoff) in a storage solution (100mM sodium chloride and 10mM Tris-HCl pH 8.0, 5% glycerol). The resulting solution was aliquoted and stored at -80°C for further usage.
A final volume of 40µL was added per well in a 96 well plate and incubated at room temperature for 1 h. The plates were centrifuged for 3 min at 450 rcf. The temperature gradient was performed in the range of 25°C-75°C (50 acquisitions per degree at a ramp rate of 4.4°C/s) using a LightCycler 480 Real-Time PCR System. […] All measurements were performed in triplicate.

The target in another assay is T2, full-length human EphB4 (Homo sapiens, UniProt P54760).
T2 construct: stably transfected to overexpress full-length human EphB4; host or cells: Mouse embryonic fibroblast cells
T2 sequence (P54760 16-987): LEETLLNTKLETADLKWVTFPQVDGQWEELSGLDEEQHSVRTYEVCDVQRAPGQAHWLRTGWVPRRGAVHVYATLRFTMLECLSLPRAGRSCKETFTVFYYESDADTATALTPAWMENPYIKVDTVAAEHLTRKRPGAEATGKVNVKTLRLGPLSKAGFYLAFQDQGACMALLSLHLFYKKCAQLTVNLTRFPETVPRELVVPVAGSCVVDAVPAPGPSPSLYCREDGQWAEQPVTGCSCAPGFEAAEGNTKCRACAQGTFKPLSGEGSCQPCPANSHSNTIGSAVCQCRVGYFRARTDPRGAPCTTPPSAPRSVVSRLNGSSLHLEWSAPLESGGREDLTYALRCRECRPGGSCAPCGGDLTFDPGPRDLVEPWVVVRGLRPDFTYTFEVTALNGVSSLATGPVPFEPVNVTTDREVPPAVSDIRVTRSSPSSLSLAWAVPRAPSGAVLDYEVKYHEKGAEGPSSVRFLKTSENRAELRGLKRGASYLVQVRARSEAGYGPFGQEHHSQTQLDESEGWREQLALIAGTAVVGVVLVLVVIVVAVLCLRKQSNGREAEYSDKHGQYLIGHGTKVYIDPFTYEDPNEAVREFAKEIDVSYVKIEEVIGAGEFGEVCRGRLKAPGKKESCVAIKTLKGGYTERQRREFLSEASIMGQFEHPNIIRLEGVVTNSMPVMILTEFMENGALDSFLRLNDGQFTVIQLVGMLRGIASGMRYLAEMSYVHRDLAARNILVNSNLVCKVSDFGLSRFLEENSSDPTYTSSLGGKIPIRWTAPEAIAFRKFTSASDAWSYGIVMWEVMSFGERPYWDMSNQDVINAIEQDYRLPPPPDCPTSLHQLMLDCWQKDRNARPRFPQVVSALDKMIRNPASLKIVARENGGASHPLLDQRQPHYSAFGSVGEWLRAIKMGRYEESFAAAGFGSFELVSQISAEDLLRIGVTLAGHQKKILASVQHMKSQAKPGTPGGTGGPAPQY
In words: Cellular phosphorylation assay (sandwich ELISA, ProQinase). The class given is cell-based. Particulars: mouse embryonic fibroblast cells overexpressing EphB4, stimulated with murine ephrinB2-Fc, read-out: cell IC50. The protocol:
Cellular phosphorylation assays: The cellular phosphorylation experiments were performed at ProQinase GmbH. Mouse embryonic fibroblast cells, stably transfected to overexpress full-length human EphB4, were plated at 4×10^4 cells/well in DMEM supplemented with 10% FCS in 48-well culture dishes. Medium was replaced by DMEM without FCS before test compounds prediluted in 100% DMSO were added (final DMSO concentration of 1 %). After incubation for 90 min at 37 °C, cells were stimulated for 2 h at 4 °C using murine ephrinB2-Fc at a final concentration of 2 µg/ml. Quantification of EphB4 phosphorylation was assessed in a 96-well plate via sandwich ELISA using a myc capture antibody and an antiphosphotyrosine detection antibody. Table 4: Cell IC50 (µmol/l) in cells overexpressing EphB4

The subject of assay [5] is panel of 456 protein kinases. Nature of the assay: Selectivity profiling at DiscoveRx (KinomeScan). Particulars: 1 µM compound; for one or more of the protein kinases listed. The format is binding. As to the method:
The selectivity profiling of compounds 10c, 10d, 10n and 10o were performed at DiscoveRx in a library of 456 kinases at a concentration of 1 µM. Briefly, kinases were mostly expressed as fusion proteins to […] and grown in 24-well blocks in E. Coli (derived from the BL21 strain). The rest of the kinases were expressed in HEK-293 cells and tagged with DNA for qPCR detection. Affinity resins were generated by mixing streptavidin-coated magnetic beads with biotinylated small molecule ligands for 30 minutes at 25 °C, followed by biotin and blocking buffer addition (SeaBlock (Pierce), 1 % BSA, 0.05 % Tween 20, 1 mM DTT). Inhibitors were kept at 40x stocks in 100% DMSO and added to the corresponding 384-well plates (40 µL). […] The kinase concentration present in the eluate was determined by qPCR. For further details, see Fabian, et. al., Nat. Biotechnol., 2005, 23 (3), 329-33.

SMILES strings stand for the structures.

One may read the GI50 as the concentration at which growth is held to half of that of the control. Read a high GI50 as lower sensitivity of the cells. Broadly, the IC50 is the point on the concentration scale where inhibition reaches its midpoint.

`Cc1ccc(NC(=O)c2cccc(C(F)(F)F)c2)cc1-n1c(N)c(C(N)=O)c2nc3ccccc3nc21` [Compound 10g, 2-amino-1-(2-methyl-5-(3-(trifluoromethyl)benzamido)phenyl)-1H-pyrrolo[2,3-b]quinoxaline-3-carboxamide]: the concentration for 50% growth inhibition (GI50) in [1] came to 3.88 µM; with K-562 leukemia cells, 0.73 µM; in [2], 2.5 µM; in the assay on HT-29, 5.87 µM; in assay [3], 0.8 µM; in [4] it was 4.23 µM. At EphA3, the ΔTm at 20 µM worked out at 12.3 °C.
Turning to `NC(=O)c1c(N)n(-c2cc(NC(=O)c3cccc(C(F)(F)F)c3)ccc2F)c2nc3ccccc3nc12` [Compound 10h, 2-amino-1-(2-fluoro-5-(3-(trifluoromethyl)benzamido)phenyl)-1H-pyrrolo[2,3-b]quinoxaline-3-carboxamide], the concentration for 50% growth inhibition (GI50) worked out at 1.44 µM in assay [1]; 0.37 µM in the assay on K-562 leukemia cells; 1.88 µM in assay [2]; 1.8 µM in the assay on HT-29; 2.16 µM in [3]; 2.06 µM in [4]. In addition, at EphA3, the ΔTm at 20 µM stood at 10.9 °C.
Regarding `Cc1ccc(C(=O)Nc2cccc(C(F)(F)F)c2)cc1-n1c(N)c(C(N)=O)c2nc3ccccc3nc21` [Compound 10i], the GI50 in assay [1] was 1.32 µM; in the assay with K-562 leukemia cells, 0.036 µM; in [2], 2.07 µM; in the assay on HT-29, 2.82 µM; in [3], 1.57 µM; in [4], 1.92 µM. Besides, the ΔTm at 20 µM at EphA3 was determined as 14.4 °C.
Turning to `NC(=O)c1c(N)n(-c2cc(C(=O)Nc3cccc(C(F)(F)F)c3)ccc2F)c2nc3ccccc3nc12` [Compound 10j], the 50% growth inhibitory concentration (GI50) is 2.69 µM in assay [1]; 0.081 µM with K-562 leukemia cells; 2.44 µM in [2]; 2.97 µM in the assay with HT-29; 1.87 µM in [3]; 2.12 µM in [4]. In addition, the ΔTm at 20 µM on EphA3 is 13 °C.
In the case of `NC(=O)c1c(N)n(-c2ccc(NC(=S)Nc3cccc(C(F)(F)F)c3)cc2)c2nc3ccccc3nc12` [Compound 10k, 2-amino-1-(4-(3-(3-(trifluoromethyl)phenyl)thioureido)phenyl)-1H-pyrrolo[2,3-b]quinoxaline-3-carboxamide], the 50% growth inhibitory concentration (GI50) in assay [1] worked out at 9.63 µM; in the assay on K-562 leukemia cells, 5.07 µM; in assay [2] it was 8.73 µM; in the assay on HT-29, 16.3 µM; in assay [3], 2.52 µM; in assay [4], 4.25 µM. Moreover, the ΔTm at 20 µM at EphA3 stood at 9.9 °C.
Turning to `Cc1cn(-c2cc(NC(=O)c3ccc(C)c(-n4c(N)c(C(N)=O)c5nc6ccccc6nc54)c3)cc(C(F)(F)F)c2)cn1` [Compound 10l], the GI50 in assay [1] is 3.05 µM; in the assay on K-562 leukemia cells it was 0.029 µM; in assay [2], 5.71 µM; in the assay on HT-29, 4.36 µM; in [3], 2.84 µM; in assay [4], 3.01 µM. Besides, the ΔTm at 20 µM on EphA3 came out at 16.2 °C.
On to `Cc1cn(-c2cc(C(=O)Nc3ccc(C)c(-n4c(N)c(C(N)=O)c5nc6ccccc6nc54)c3)cc(C(F)(F)F)c2)cn1` [Compound 10m], for which the 50% growth inhibitory concentration (GI50) in assay [1] came to 1.93 µM; in the assay with K-562 leukemia cells it was 0.03 µM; in assay [2], 4.01 µM; with HT-29 it was 13.4 µM; in [3], 2.54 µM; in assay [4], 5.12 µM. The ΔTm at 20 µM at EphA3 worked out at 15.8 °C.
Regarding `CC(C)(C)c1cc(NC(=O)Nc2ccc(-n3c(N)c(C(N)=O)c4nc5ccccc5nc43)cc2)n(-c2ccc3ncccc3c2)n1` [Compound 10n, 2-amino-1-(4-(3-(5-tert-butyl-2-quinolin-6-yl-2H-pyrazol)ureido)phenyl)-1H-pyrrolo[2,3-b]quinoxaline-3-carboxamide], the 50% growth inhibitory concentration (GI50) in assay [1] came to 0.21 µM; with K-562 leukemia cells it was 0.003 µM; in [2], 0.73 µM; with HT-29, 1.25 µM; in assay [3], 0.15 µM; in assay [4] it was 0.45 µM. Also, the half-maximal inhibitory concentration (IC50) on full-length human EphB4 was determined as 1.1 µM. Moreover, at EphA3, the ΔTm at 20 µM turned out to be 19.3 °C. The “control binding to the kinase in presence of the compound relative to control binding in absence of the compound” value in [5] is reported as “less than 10% of control”.
Turning to `NC(=O)c1c(N)n(-c2ccc(NC(=O)Nc3cccc(C(F)(F)F)c3)cc2)c2nc3ccccc3nc12` [Compound 10p, 2-amino-1-(4-(3-(3-(trifluoromethyl)phenyl)ureido)phenyl)-1H-pyrrolo[2,3-b]quinoxaline-3-carboxamide], the GI50 in assay [1] is 10.3 µM; in the assay with K-562 leukemia cells it was 5.45 µM; in [2], 10.8 µM; in the assay with HT-29, 18 µM; in assay [3], 0.67 µM; in assay [4] it was 10 µM.
